Measurements reported in US10533018B2, “Antimicrobial prochelators to target drug-resistant bacteria and methods of making and using the same” (Duke University, priority 2015, dated 2020).
Where two headings read alike, the source gives them in different places.

Experiments:
7 bacterial strains = assay: Broth microdilution, summary across strains tested; format: cell-based
Description: Cultures were incubated on LB (Lennox, Sigma) agar at 37° C. in ambient atmospheric composition. Before beginning an experiment, a single bacterial colony grown on LB agar was resuspended in 2 mL LB broth and incubated overnight to form a turbid cell suspension. The overnight culture was diluted 1:100 in LB and used immediately as the working culture. To assess the antibacterial activity of compounds, the working bacterial culture was aliquoted in a clear, flat-bottomed, 96-well polystyrene plate (Costar) and the compound of interest was added in 2-fold serial dilution from 500 to 1 μM. Plates were covered with a breathable sealing film (Aeroseal, Genesee Scientific) and incubated at 37° C. in ambient atmospheric composition with shaking at 200 rpm. Optical density at 600 nm was recorded after 4 h and 20 h for each well using a standard OD600 protocol with LB serving as the blank. The resulting dose-response curves were fit to a nonlinear regression in GraphPad Prism Version 6 to calculate the IC50 of DB4-51 in each strain.

[1] = test system: Type III β-lactamase from Enterobacter cloacae; assay: LC-MS conversion of prochelator by β-lactamase; format: biochemical
Description: (§1) A commercially available β-lactamase (type III from Enterobacter cloacae, Sigma Aldrich) was used to verify the specificity of compound DB4-51 activation. Aqueous samples of the prochelator with and without β-lactamase were incubated at 25° C. and LC-MS was performed periodically to monitor the conversion. Percent conversion was calculated based upon the area under the LC-MS peak that corresponds to the mass of DB4-51.
LC-MS performed on samples containing 100 μM DB4-51, 10 μM Rofecoxib (as internal standard), and 0.5 units/mL β-lactamase in PBS. Samples were incubated at room temperature and analyzed via LC-MS at time 0. The mass spectrum corresponding to the chromatographic peak eluting at 14 min matches the expected m/z value for […]. After incubation, a new peak appears at 7 mins with corresponding m/z values consistent with expected masses of PT disulfide and the 2:1 PT complex with iron. The internal standard was Rofecoxib which elutes at 16 min. The concentrations of DB4-51, PT, and internal standard were calculated based on prepared calibration curves of the integrated area under the UV peak of each component.
(§2) The reaction products of the prochelator DB4-162 were analyzed by LC-MS. A sample of 100 μM DB4-162 and 10 μM Rofecoxib (internal standard) in PBS was divided into two LC-MS vials and to one was added 0.5 units/mL β-lactamase. After incubating at room temperature, the samples were run on the LC-MS. Integrating the area under the peak of the UV-trace gives a measure of the concentration of that species. By serial dilution, a calibration curve was constructed in order to quantify the concentration of DB4-162 present in solution. The mass spectrum confirms that the prochelator, with a molecular weight of 477.1 g/mol, elutes at 14.5 minutes (FIG. 10).

[2] = Stability in aqueous media / PBS (UV-Vis, LC-MS); format: physicochemical
Description: as §1
The results from the growth inhibition assays support our hypothesis that β-lactamase-producing bacteria activate DB4-51 to release PT as the active agent. […] The UV-Vis absorbance spectra of DB4-51 and PT in PBS buffer are clearly distinct, with DB4-51 showing a shoulder at 264 nm and a broad absorption peak centered at 315 nm.
In order to monitor the stability of DB4-162, the absorbance spectrum was recorded in PBS. The sample was incubated at 37° C. and the absorbance spectrum was recorded periodically. […] Additionally, the concentration of the prochelator in solution was monitored by LC-MS. A calibration curve was prepared after a serial dilution of DB4-162 was analyzed on the instrument and the area under the broad absorbance band at 260-300 nm that correlates with the prochelator was integrated. This curve was then used to calculate the concentration of DB4-162 present in solution after incubating in PBS at 37° C. The sample was analyzed by LC-MS after 0, 24, and 72 hours. After incubating in PBS for 24 hours more than 85% of the original signal was still observed by LC-MS. However, after 72 hours, it was calculated that approximately 60% of DB4-162 was still present in solution. Given the lack of degradation products in the mass spectrum and the absence of any new absorbance peaks it is possible that aggregation of the prochelator over time is the cause of the observed loss of signal. Together, the UV-Vis and LC-MS data support the overall stability of DB4-162 in aqueous conditions. By comparison, the half-life of most β-lactam antibiotics in vivo is a few hours.[44, 45]
as §2

[3] = Zinpyr-1 fluorescence assay; format: physicochemical
Description: Lanes three and four contain 100 μM DB4-51 and 0.5 units/ml β-lactamase respectively and confirm these molecules are innocent in the fluorescence of zinpyr-1. Lane five contains 100 μM DB4-51 and 0.5 units/ml β-lactamase.

mammalian cells = assay: LC-MS of spent mammalian cell culture medium; format: in vitro ADME; conditions: spent cell culture medium of cytotoxicity assay; after 4 hours
Description: Suspecting that the cytotoxicity apparent at high concentrations of DB4-51 in the mammalian cells may be due to PT released by non-specific hydrolysis of DB4-51, we analyzed the spent cell culture medium used for the cytotoxicity assay by LC-MS and found 50-60% loss of detectable, intact prochelator compared to the non-incubated controls after 4 hours.

E. coli = format: cell-based; conditions: checkerboard, LB, OD600
Description: Further evidence for the influence of bioavailable copper on the IC50 of DB4-51 was obtained by using a checkerboard assay. […] Serial dilutions of DB4-51 in LB were arrayed against dilutions of chelator (BCS and EDTA). The antagonism exists between our prochelator, DB4-51, and the strong, extracellular chelators BCS and EDTA. […] However, at lower concentrations, EDTA works antagonistically with DB4-51 by restoring bacterial growth. This trend further underscores the influence that copper and potentially other metals have on the growth inhibitory activity of DB4-51.

[4] = test system: CCD-19Lu human lung fibroblast cells
Description: (§3) CellTox Green LDH Cytotoxicity Detection Kit was purchased from Promega. Cell lines were purchased from the ATCC. All work was performed in a laminar-flow hood using sterile techniques. […] After splitting and counting, black, clear bottom 96-well plates were seeded at a density of 15,000 cells/well and incubated overnight at 37° C. in a fully humidified atmosphere containing 5% CO2. […] Untreated cells served as the negative control while wells containing untreated cells incubated with 1% Triton X-100 served as the positive control.
(§4) Using a cytotoxicity assay, the viability of mammalian cells was monitored as a function of their membrane integrity.

[5] = test system: HepG2 human liver epithelial cells
Description: as §3, §4

[6] = concentrations below 500 μM, 24 hour

SMILES: O=C(Cc1ccccc1)N[C@@H]1C(=O)N2C(C(=O)O)=C(CSc3cccc[n+]3[O-])CS[C@H]12 [DB4-51, 2-((((6R,7R)-2-carboxy-8-oxo-7-(2-phenylacetamido)-5-thia-1-azabicyclo[4.2.0]oct-2-en-3-yl)methyl)thio)pyridine 1-oxide]
- IC50 of DB4-51 relative to that of PT (7 bacterial strains; most ampicillin-resistant strains tested): 2-5 fold
- Percent conversion (LC-MS peak area) ([1]; 100 μM, 0.5 units/ml β-lactamase, pH 7.4 PBS, after 4 hours): ~80%
- decrease of chromatographic peak area of prochelator ([1]; after 4 hours in the presence of β-lactamase): more than 80%
- PT released from the prochelator (area under PT peak) ([1]; with β-lactamase, PT difficult to quantify): 50%
- stability by LC-MS ([2]; PBS, 72 hours at 37° C.): no signs of degradation
- absorbance spectrum in PBS ([2]; PBS, after 19 hours): remains unchanged
- Percent conversion in the absence of the enzyme ([2]; aqueous, 25° C., after 48 hours): ≤ 5%
- decrease of Zn-zinpyr-1 fluorescence ([3]; 100 μM + 0.5 units/ml β-lactamase): more than 50%
- Zn-zinpyr-1 fluorescence on addition of compound ([3]; 400 equivalents (100 μM), no β-lactamase): unaffected
- loss of detectable, intact prochelator vs non-incubated controls (mammalian cells): 50-60%
- interaction with extracellular chelators BCS and EDTA (E. coli): antagonism
- LD50 ([4]; 24 h): > 500 µM
- cytotoxicity ([4]; below 250 μM, 24 h): non-toxic
- LD50 ([5]; 24 h): > 500 µM
- cell death ([5]; at 500 μM, 24 h): more than 50%
- cytotoxicity ([5]; below 250 μM, 24 h): non-toxic

SMILES: Cc1csc(=S)n1OCC1=C(C(=O)O)N2C(=O)[C@@H](NC(=O)Cc3ccccc3)[C@H]2SC1 [DB4-162, (6R,7R)-3-(((4-methyl-2-thioxothiazol-3(2H)-yl)oxy)methyl)-8-oxo-7-(2-phenylacetamido)-5-thia-1-azabicyclo[4.2.0]oct-2-ene-2-carboxylic acid]
- reduction of prochelator peak ([1]; 100 μM, 0.5 units/mL β-lactamase, PBS, 4 hours): more than 95%
- stability without the enzyme (LC-MS) [2]: appears stable
- original signal still observed by LC-MS ([2]; PBS, 37° C., 24 hours): more than 85%
- prochelator still present in solution (LC-MS) ([2]; PBS, 37° C., 72 hours): approximately 60%
- absorbance spectrum change ([2]; PBS, 37° C., after 72 hours): only very small spectral changes

SMILES: [O-][n+]1ccccc1S [PT, 2-mercaptopyridine N-oxide]
- IC50 (7 bacterial strains; 500 μM BCS, depending on strain, read-out: IC50 across strains under Cu limiting conditions): 6 to 20 µM
- IC50 (7 bacterial strains; LB broth, span over 7 strains, read-out: IC50 across all strains tested): 2 to 11 µM
- cell death [4, 6]: ≤ 50%
- cell death [5, 6]: ≤ 50%
